Source: PMC10066365, “Nemacol is a small molecule inhibitor of C. elegans vesicular acetylcholine transporter with anthelmintic potential” (Nature Communications, 2023)
Where “and” joins values, the source holds several entries; their conditions need not be identical. Equal entries are not always repeated. Where two headings read alike, the source gives them in different places.

Experiments:
C. elegans = C. elegans motor phenotype scoring on solid media (Punc/jerky-unc, coiled, paralyzed), wild-type young adults; type: in vivo, Caenorhabditis elegans; conditions: for atypical locomotion (number of animals) / coiled (number of animals) / no phene (number of animals) / paralyzed (number of animals) / any phene: mean % fraction of young adults exhibiting any phenotype (coiled, jerky-Unc or paralyzed): one hour; for atypical locomotion (number of animals) / coiled (number of animals) / no phene (number of animals) / paralyzed (number of animals): young adults, 20 animals per trial, single technical replicate; for any phene: mean % fraction of young adults exhibiting any phenotype (coiled, jerky-Unc or paralyzed): mean of three biological replicates; for EC50: Caenorhabditis elegans, any motor phenotype after 1 h on solid media, ± 95% CI, read-out: C. elegans - motor disruption EC50
rat VAChT = biological target: T1, rat VAChT (Rattus norvegicus, UniProt Q62666); assay: [3H]Vesamicol competitive radioligand binding, PC12 cells expressing ratVAChT
T1 construct: expressed in transfected cells; host or cells: rat PC12 (PC12 A123.7) cells, stably transfected; shared by Dr. Ali Roghani (Texas Tech University)
T1 sequence (Q62666 1-530): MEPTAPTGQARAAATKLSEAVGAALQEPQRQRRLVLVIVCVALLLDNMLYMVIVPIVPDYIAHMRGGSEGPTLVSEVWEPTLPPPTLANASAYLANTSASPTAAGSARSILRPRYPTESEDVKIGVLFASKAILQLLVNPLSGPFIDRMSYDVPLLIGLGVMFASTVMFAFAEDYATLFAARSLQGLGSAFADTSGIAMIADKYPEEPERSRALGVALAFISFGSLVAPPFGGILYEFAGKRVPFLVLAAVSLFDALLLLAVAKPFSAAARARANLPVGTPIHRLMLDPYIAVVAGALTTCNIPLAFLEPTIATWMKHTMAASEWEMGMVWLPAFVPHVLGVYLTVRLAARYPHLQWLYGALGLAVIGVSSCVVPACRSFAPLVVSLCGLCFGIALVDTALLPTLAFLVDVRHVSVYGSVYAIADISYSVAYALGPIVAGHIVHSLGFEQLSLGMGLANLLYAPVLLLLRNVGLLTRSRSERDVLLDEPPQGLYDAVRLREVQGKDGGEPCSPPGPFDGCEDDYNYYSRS

[1] = system: Dirofilaria immitis microfilariae; assay: Dirofilaria immitis microfilariae immobility assay (DiroImager, 72 h); conditions: Dirofilaria immitis microfilariae
How it was run: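 About 250 freshly purified microfilariae of the Missouri isolate per well in supplemented RPMI 1640, exposed to compound for 72 h. Motility scored by automated whole-plate optical imaging; medium with 1% DMSO as negative control.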

[2] = system: Dirofilaria immitis L3/L4; assay: Dirofilaria immitis L3/L4 motility assay (DiroImager, 72 h); conditions: Dirofilaria immitis L4
Haemonchus contortus = Haemonchus contortus L3 Migration Trap Assay (motility, 24 h exposure); conditions: for efficacy: hc weybridge, motilityTrap24hNoWash, 24 h, single wells
Pristionchus pacificus = Pristionchus pacificus motor disruption dose-response on solid media, 1 h; conditions: for EC50: Pristionchus pacificus, 1 h, read-out: P. pacificus motor disruption EC50; for mean % any phene: any phenotype (coiled, jerky-Unc or paralyzed) at one hour, mean of three biological replicates; for rep 1 atypical locomotion / rep 1 coiled / rep 1 no phene / rep 1 paralyzed / rep 2 atypical locomotion / rep 2 coiled / rep 2 no phene / rep 2 paralyzed / rep 3 atypical locomotion / rep 3 coiled / rep 3 no phene / rep 3 paralyzed: count of 20 animals per trial, one hour
[3] = [3H]Vesamicol binding, PC12, experiment 1, read-out: expt 1 Ki (M) vs. rat VAChT (PC12)
[4] = [3H]Vesamicol binding, PC12, experiment 2, read-out: expt 2 Ki (M) vs. rat VAChT (PC12)
[5] = [3H]Vesamicol binding, rat VAChT (PC12), mean of 2-3 experiments, read-out: mean Ki

CC1CCC(N2CCN(c3ccc(F)cc3)CC2)CC1 (centres unmarked) [Nemacol-53]
atypical locomotion (number of animals) (C. elegans; 3.75uM): 6 and 2 and 1 and 3 and 13 and 8
coiled (number of animals) (C. elegans; 3.75uM): 0
no phene (number of animals) (C. elegans; 3.75uM): 14 and 18 and 19 and 17 and 7 and 12
paralyzed (number of animals) (C. elegans; 3.75uM): 0
any phene: mean % fraction of young adults exhibiting any phenotype (coiled, jerky-Unc or paralyzed) (C. elegans; 3.75uM): 27.5%
atypical locomotion (number of animals) (C. elegans; 15uM): 3 and 9 and 11 and 13 and 18 and 17
coiled (number of animals) (C. elegans; 15uM): 0 and 1 and 4 and 3 and 2
no phene (number of animals) (C. elegans; 15uM): 4 and 2 and 0 and 3
paralyzed (number of animals) (C. elegans; 15uM): 13 and 8 and 5 and 4 and 0
any phene: mean % fraction of young adults exhibiting any phenotype (coiled, jerky-Unc or paralyzed) (C. elegans; 15uM): 92.5%
atypical locomotion (number of animals) (C. elegans; 60uM): 0 and 2
coiled (number of animals) (C. elegans; 60uM): 13 and 15 and 9 and 12 and 16
no phene (number of animals) (C. elegans; 60uM): 0
paralyzed (number of animals) (C. elegans; 60uM): 7 and 5 and 9 and 6 and 2
EC50 (C. elegans): 5.5 ± 1.6 µM
Ki (rat VAChT; [3]): 5.54e-07 M
Ki (rat VAChT; [4]): 1.04e-06 M
Ki (rat VAChT; [5]): 7.98e-07 M
% effect (motility), DIROIM MF ([1]; 0.016 µM): 0%
% effect (motility), DIROIM MF ([1]; 0.08 µM): 0%
% effect (motility), DIROIM MF ([1]; 0.4 µM): 0%
% effect (motility), DIROIM MF ([1]; 2 µM): 0%
% effect (motility), DIROIM MF ([1]; 10 µM): 0%
% effect (motility), DIROIM L4 ([2]; 10 µM): 5%
% effect (motility), DIROIM L4 ([2]; 50 µM): 20%
effect on Ivermectin's ability to paralyze H. contortus (Haemonchus contortus; EC30 concentration of Nemacol-53 (26.4 µM), P = 0.002): significantly enhance
EC30 (Haemonchus contortus; H. contortus L3 motility): 26 µM
EC50 (Haemonchus contortus; Haemonchus contortus): 40.6 µM
EC50 (Pristionchus pacificus): 12.8 ± 1.2 µM
mean % any phene (Pristionchus pacificus; conc 3.75): 8.333%
rep 1 atypical locomotion (Pristionchus pacificus; conc 3.75): 2 and 3
rep 1 coiled (Pristionchus pacificus; conc 3.75): 0
rep 1 no phene (Pristionchus pacificus; conc 3.75): 18 and 17
rep 1 paralyzed (Pristionchus pacificus; conc 3.75): 0
rep 2 atypical locomotion (Pristionchus pacificus; conc 3.75): 1
rep 2 coiled (Pristionchus pacificus; conc 3.75): 0
rep 2 no phene (Pristionchus pacificus; conc 3.75): 19
rep 2 paralyzed (Pristionchus pacificus; conc 3.75): 0
rep 3 atypical locomotion (Pristionchus pacificus; conc 3.75): 2 and 1
rep 3 coiled (Pristionchus pacificus; conc 3.75): 0
rep 3 no phene (Pristionchus pacificus; conc 3.75): 18 and 19
rep 3 paralyzed (Pristionchus pacificus; conc 3.75): 0
mean % any phene (Pristionchus pacificus; conc 15): 57.5%
rep 1 atypical locomotion (Pristionchus pacificus; conc 15): 12 and 13
rep 1 no phene (Pristionchus pacificus; conc 15): 7
rep 1 paralyzed (Pristionchus pacificus; conc 15): 0
rep 2 paralyzed (Pristionchus pacificus; conc 15): 0
rep 3 coiled (Pristionchus pacificus; conc 15): 2
mean % any phene (Pristionchus pacificus; conc 60): 100%
rep 1 atypical locomotion (Pristionchus pacificus; conc 60): 0
rep 1 coiled (Pristionchus pacificus; conc 60): 8 and 13
rep 1 no phene (Pristionchus pacificus; conc 60): 0
rep 1 paralyzed (Pristionchus pacificus; conc 60): 12 and 7
rep 2 coiled (Pristionchus pacificus; conc 60): 9 and 14
rep 2 no phene (Pristionchus pacificus; conc 60): 0
rep 2 paralyzed (Pristionchus pacificus; conc 60): 10 and 6
rep 3 atypical locomotion (Pristionchus pacificus; conc 60): 2 and 1
rep 3 coiled (Pristionchus pacificus; conc 60): 7 and 12
rep 3 no phene (Pristionchus pacificus; conc 60): 0
rep 3 paralyzed (Pristionchus pacificus; conc 60): 11 and 7

FC(F)(F)c1cccc(N2CCN(CC3CCCC3)CC2)c1 [Nemacol-63]
atypical locomotion (number of animals) (C. elegans; 3.75uM): 0 and 4 and 6 and 2
coiled (number of animals) (C. elegans; 3.75uM): 0
no phene (number of animals) (C. elegans; 3.75uM): 20 and 16 and 14 and 18
paralyzed (number of animals) (C. elegans; 3.75uM): 0
any phene: mean % fraction of young adults exhibiting any phenotype (coiled, jerky-Unc or paralyzed) (C. elegans; 3.75uM): 18.3333%
atypical locomotion (number of animals) (C. elegans; 15uM): 14 and 16 and 18 and 15 and 17
coiled (number of animals) (C. elegans; 15uM): 3 and 0 and 2 and 1
no phene (number of animals) (C. elegans; 15uM): 0 and 4 and 3
paralyzed (number of animals) (C. elegans; 15uM): 3 and 4 and 0
any phene: mean % fraction of young adults exhibiting any phenotype (coiled, jerky-Unc or paralyzed) (C. elegans; 15uM): 94.1667%
atypical locomotion (number of animals) (C. elegans; 60uM): 8 and 10 and 11 and 9 and 14 and 15
coiled (number of animals) (C. elegans; 60uM): 1 and 3 and 2 and 4
no phene (number of animals) (C. elegans; 60uM): 0 and 5 and 1
paralyzed (number of animals) (C. elegans; 60uM): 11 and 7 and 9 and 0
any phene: mean % fraction of young adults exhibiting any phenotype (coiled, jerky-Unc or paralyzed) (C. elegans; 60uM): 95%
EC50 (C. elegans): 6.1 ± 2.1 µM
activity ratio, mammalian VAChT Ki to C. elegans in vivo EC50 (rat VAChT): 1.10
Ki (rat VAChT; [3]): 4.89e-06 M
Ki (rat VAChT; [4]): 8.47e-06 M
Ki (rat VAChT; [5]): 6.68e-06 M
Ki (rat VAChT; [3H]Vesamicol displacement, mean, read-out: ratVAChT Ki): 6.68e-06 M
% effect (motility), DIROIM MF ([1]; 0.016 µM): 0%
% effect (motility), DIROIM MF ([1]; 0.08 µM): 0%
% effect (motility), DIROIM MF ([1]; 0.4 µM): 0%
% effect (motility), DIROIM MF ([1]; 2 µM): 0%
% effect (motility), DIROIM MF ([1]; 10 µM): 0%
% effect (motility), DIROIM L4 ([2]; 10 µM): 10%
% effect (motility), DIROIM L4 ([2]; 50 µM): 0%
EC50 (Pristionchus pacificus): > 60 µM
mean % any phene (Pristionchus pacificus; conc 3.75): 0.8333%
rep 1 atypical locomotion (Pristionchus pacificus; conc 3.75): 0
rep 1 coiled (Pristionchus pacificus; conc 3.75): 0
rep 1 no phene (Pristionchus pacificus; conc 3.75): 20
rep 1 paralyzed (Pristionchus pacificus; conc 3.75): 0
rep 2 atypical locomotion (Pristionchus pacificus; conc 3.75): 1
rep 2 coiled (Pristionchus pacificus; conc 3.75): 0
rep 2 no phene (Pristionchus pacificus; conc 3.75): 19
rep 2 paralyzed (Pristionchus pacificus; conc 3.75): 0
rep 3 atypical locomotion (Pristionchus pacificus; conc 3.75): 0
rep 3 coiled (Pristionchus pacificus; conc 3.75): 0
rep 3 no phene (Pristionchus pacificus; conc 3.75): 20
rep 3 paralyzed (Pristionchus pacificus; conc 3.75): 0
mean % any phene (Pristionchus pacificus; conc 15): 1.667%
rep 1 atypical locomotion (Pristionchus pacificus; conc 15): 0
rep 1 coiled (Pristionchus pacificus; conc 15): 0
rep 1 no phene (Pristionchus pacificus; conc 15): 20
rep 1 paralyzed (Pristionchus pacificus; conc 15): 0
rep 2 atypical locomotion (Pristionchus pacificus; conc 15): 0
rep 2 coiled (Pristionchus pacificus; conc 15): 0
rep 2 no phene (Pristionchus pacificus; conc 15): 19 and 20
rep 3 atypical locomotion (Pristionchus pacificus; conc 15): 0
rep 3 coiled (Pristionchus pacificus; conc 15): 0
rep 3 no phene (Pristionchus pacificus; conc 15): 20 and 19
mean % any phene (Pristionchus pacificus; conc 60): 10.8333%
rep 1 atypical locomotion (Pristionchus pacificus; conc 60): 4 and 3
rep 1 no phene (Pristionchus pacificus; conc 60): 16
rep 1 paralyzed (Pristionchus pacificus; conc 60): 0
rep 2 atypical locomotion (Pristionchus pacificus; conc 60): 1 and 2
rep 2 coiled (Pristionchus pacificus; conc 60): 0
rep 2 no phene (Pristionchus pacificus; conc 60): 18
rep 3 coiled (Pristionchus pacificus; conc 60): 0
rep 3 no phene (Pristionchus pacificus; conc 60): 20 and 19
rep 3 paralyzed (Pristionchus pacificus; conc 60): 0

O=[N+]([O-])c1ccc(N2CCN(CC3CCCCC3)CC2)cc1 [Nemacol_1]
efficacy (Haemonchus contortus; dose 0.0195312 µM): 0
efficacy (Haemonchus contortus; dose 0.078125 µM): 0
efficacy (Haemonchus contortus; dose 0.3125 µM): 0
efficacy (Haemonchus contortus; dose 1.25 µM): 0
efficacy (Haemonchus contortus; dose 5 µM): 0

CC1CCC(N2CCN(c3ccc(F)cc3)CC2)CC1 (centres unmarked) [Nemacol_53]
efficacy (Haemonchus contortus; dose 0.00488281 µM): 0
efficacy (Haemonchus contortus; dose 0.0195312 µM): 0
efficacy (Haemonchus contortus; dose 80 µM): 90.3789 and 92.5148 and 88.1185

c1ccc(N2CCN(CC3CCCC3)CC2)cc1 [Nemacol_62]
efficacy (Haemonchus contortus; dose 5 µM): 0
efficacy (Haemonchus contortus; dose 20 µM): 0
efficacy (Haemonchus contortus; dose 80 µM): 0
